Measurements taken from patent US20070037785A1, “Novel dipeptidyl peptidase IV inhibitors used for functionally influencing different cells and treating immunological, infammatory, neuronal, and other diseases” (priority 2003, published 2007).
Like-named read-outs stand apart in the source and are kept apart here.

Target: dipeptidyl peptidase IV (Homo sapiens, UniProt P27487)
Assay: biochemical
[1] = values marked with "*" are ID50 values, read-out: IC50DPIV, values marked with "*" = ID50
[2] = values without "*" = IC-50, read-out: IC50DPIV

dipeptidyl peptidase IV, sequence (P27487 whole entry, species assumed): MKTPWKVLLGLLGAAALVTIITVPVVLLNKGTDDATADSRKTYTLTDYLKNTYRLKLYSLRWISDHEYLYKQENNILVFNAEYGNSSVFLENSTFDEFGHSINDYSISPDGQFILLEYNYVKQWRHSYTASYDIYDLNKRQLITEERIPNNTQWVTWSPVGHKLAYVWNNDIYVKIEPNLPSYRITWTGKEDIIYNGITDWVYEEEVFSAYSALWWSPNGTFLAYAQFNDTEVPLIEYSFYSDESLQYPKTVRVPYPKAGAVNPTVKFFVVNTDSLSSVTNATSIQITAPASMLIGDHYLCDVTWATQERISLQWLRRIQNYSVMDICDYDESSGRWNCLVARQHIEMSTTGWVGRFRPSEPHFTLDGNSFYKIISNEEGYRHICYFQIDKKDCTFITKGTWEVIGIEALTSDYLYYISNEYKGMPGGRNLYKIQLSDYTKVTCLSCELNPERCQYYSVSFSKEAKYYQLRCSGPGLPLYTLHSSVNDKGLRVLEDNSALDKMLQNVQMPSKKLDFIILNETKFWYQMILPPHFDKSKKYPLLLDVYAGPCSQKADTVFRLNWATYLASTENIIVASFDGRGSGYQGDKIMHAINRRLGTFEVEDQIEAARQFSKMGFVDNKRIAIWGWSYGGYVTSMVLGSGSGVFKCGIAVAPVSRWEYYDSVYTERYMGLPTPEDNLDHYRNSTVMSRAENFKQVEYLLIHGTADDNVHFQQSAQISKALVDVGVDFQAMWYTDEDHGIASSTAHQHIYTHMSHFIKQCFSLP

| SMILES | IC50 [1] [µM] | IC50 [2] [µM] |
| --- | --- | --- |
| CN(C)c1ccc(N2CC(C)(C)C2=O)cc1 [D1.001] | 1.2 | – |
| O=C1NCCCCC1Nc1ccc(N2C(=O)CCCC2=O)cc1[N+](=O)[O-] (centres unmarked) [D1.003] | – | 34.1 |
| COc1ccc(C(=O)CS/C2=N/CCCCCC2)cc1 [D1.004] | – | 36.5 |
| CCOC(=O)c1n[nH]c2c1C(=O)N(c1ccc([N+](=O)[O-])cc1)C2=O [D2.005] | – | 54.5 |
| CCOC(=O)O/N=C(N)/C(N)=N/OC(=O)OCC [D2.006] | 133 | – |
| CC(C)(C)S(=O)(=O)c1ccc2nc3c(n2c1)CCCC3 [D3.003] | – | 15.6 |
| CN(C)CCNc1nc2c(c(=O)n(C)c(=O)n2C)n1Cc1ccccc1Cl [D3.004] | – | 7.5 |
| COc1cc2c(cc1OC)CC(C)(C)NC2 [D3.005] | – | 6 |
| COC(=O)C1=C(N)N2C(=O)CSC2=C(C(=O)OC)C1 [D3.008] | – | 34.1 |
| CCOC(=O)C1=C2SCC(=O)N2C(N)=C(C#N)C1 [D3.009] | – | 14.1 |
| Cc1cccc(-n2c(=O)c3c4c(sc3n3c(SC(C)C(=O)N5CCOCC5)nnc23)COC(C(C)C)C4)c1 (centres unmarked) [D3.012] | – | 10.1 |
| CCSc1nnc2n(-c3ccc(OC)cc3)c(=O)c3c4c(sc3n12)CCCC4 [D3.013] | – | 10.8 |
| Brc1cccc(/C=N/Nc2nnc3c(n2)[nH]c2ccccc23)c1 [D3.015] | – | 12.2 |
| O=C1c2ccccc2-c2c1[n+]([O-])c1c([n+]2[O-])CCCC1 [D3.017] | – | 14 |
| Cc1ccc(S(=O)(=O)CNC(=S)c2ccc3ccccc3c2)cc1 [D3.019] | – | 14.5 |
| Cc1ccccc1N1C(=O)c2sc3nc4c(c(=O)n3c2C1=O)CCC4 [D3.020] | – | 15.2 |
| CC(C)C1Cc2c(sc3c2c(=O)n(Cc2ccccc2)c2nnc(SCC(=O)O)n32)CO1 (centres unmarked) [D3.024] | – | 18.9 |
| COc1cc2c(cc1OC)CC(C)(C)N=C2 [D3.026] | – | 20.2 |
| CCCn1c(N2CCN(CC(=O)c3c(C)n(C)c4ccccc34)CC2)nc2c1c(=O)[nH]c(=O)n2C [D3.027] | – | 15.2 |
| COc1cc2c(cc1OC)C13CCN4CC5=C(C6=C7CN8CCC9%10c%11cc(OC)c(OC)cc%11N%11C(=O)CC(O6)C(C7CC89)C%11%10)OC6CC(=O)N2C1C6C5CC43 (centres unmarked) [D3.029] | – | 22.9 |

| SMILES | IC50 [1] [µM] | IC50 [2] [µM] |
| --- | --- | --- |
| O=C1c2ccc(-c3nc4ccccc4c(=O)o3)cc2C(=O)N1c1ccc(Cc2ccc(N3C(=O)c4ccc(-c5nc6ccccc6c(=O)o5)cc4C3=O)cc2)cc1 [D3.032] | – | 27.2 |
| Cc1nnc(SCC(=O)OCN2C(=O)c3ccccc3C2=O)[nH]1 [D3.033] | – | 27.5 |
| N#CC1=C(N)C(C#N)(C#N)C(c2ccccc2)C2CNCC=C12 (centres unmarked) [D3.035] | – | 52.3 |
| N#Cc1c(NC(=O)C(C(F)(F)F)C(F)(F)F)sc2c1CCC2 [D3.038] | – | 30.9 |
| COc1cc2c(cc1OC)C1(CCCC1)CN(CC#N)C2 [D3.039] | – | 31.4 |
| CCC(=O)Oc1cccc(N2C(=O)C3C4C=CC(C3C2=O)C2C(=O)N(c3cccc(OC(=O)CC)c3)C(=O)C42)c1 (centres unmarked) [D3.045] | 4.2 | – |
| CCOC(=O)c1c(C)oc2c1c1c(c3ccccc32)OCN(C2CCS(=O)(=O)C2)C1 (centres unmarked) [D3.046] | – | 34.2 |
| CCC(=O)Oc1ccc2c(c1)OC1(OC(C)=O)OC(C)CC1=C2C (centres unmarked) [D3.047] | – | 37.4 |
| N#Cc1c(NC(=O)C(C(F)(F)F)C(F)(F)F)sc2c1CCCC2 [D3.049] | – | 39.5 |
| O=C1C(Cc2c[nH]c3ccccc23)NC(=S)N1c1ccccc1 (centres unmarked) [D3.051] | – | 40.2 |
| COC(=O)C1=C2SCC(=O)N2C(N)=C(C#N)C1 [D3.052] | – | 40.5 |
| CN1CCN(c2nc3c(c(=O)n(C)c(=O)n3C)n2Cc2cccc(F)c2)CC1 [D3.054] | – | 41.2 |
| N#CC1=C(N)C(C#N)(C#N)C(c2ccccc2)C2CNCC=C12 (centres unmarked) [D3.056] | – | 42.7 |
| Cn1c(=O)[nH]c(=O)c2c1nc(NCCO)n2Cc1ccccc1Cl [D3.058] | – | 44 |
| CC(C)(C)C(=O)N1CCN(c2cc(Cl)nc(SCC(=O)N3CCN(Cc4ccc5c(c4)OCO5)CC3)n2)CC1 [D3.059] | – | 45.6 |
| CCC(=O)O/N=C(/C)c1cc2ccccc2oc1=O [D3.060] | – | 45.9 |
| Cc1nc2c(sc(=S)n2C)c(=O)[nH]1 [D3.061] | – | 46 |
| Nc1ccc2c(c1)C/C(=C\c1ccco1)C2=O [D3.070] | – | 27.5 |
| CC(C)C1=CC23CCC4C(C)(C(=O)O)CCCC4(C)C2CC1C1C(=O)N(c2cccc(O)c2)C(=O)C13 (centres unmarked) [D3.074] | – | 55.4 |
| COc1cc2c(cc1OC)CC1(CCCC1)N=C2 [D3.077] | – | 59.1 |

| SMILES | IC50 [1] [µM] | IC50 [2] [µM] |
| --- | --- | --- |
| CC(=O)Oc1cc2oc(=O)cc(C)c2cc1OC(C)=O [D3.078] | – | 59.2 |
| CC1CCc2c(sc(NC(=O)C(C(F)(F)F)C(F)(F)F)c2C#N)C1 (centres unmarked) [D3.080] | – | 59.8 |
| O=C(N/N=C/c1cc(Br)c(O)c(Br)c1O)/C(=C\c1ccc2c(c1)OCO2)NC(=O)c1ccccc1 [D3.081] | – | 60 |
| Cn1cnnc1SCC(=O)OCN1C(=O)c2ccccc2C1=O [D3.083] | – | 62.4 |
| CSc1nc2sc3c(c2c(=O)n1-c1cccc(C)c1)CC(C)(C)OC3 [D3.088] | – | 80.6 |
| CNc1nc2c(c(=O)[nH]c(=O)n2C)n1Cc1ccccc1Cl [D3.091] | – | 27.8 |
| CC(C)(C)C1CCc2c(sc(NC(=O)C(C(F)(F)F)C(F)(F)F)c2C#N)C1 (centres unmarked) [D3.092] | – | 101 |
| Cc1ccc2nc(-c3ccc(N4C(=O)CC(N5CCC(C)CC5)C4=O)cc3)sc2c1 (centres unmarked) [D3.094] | – | 116 |
| O=[N+]([O-])c1ccc(C2OCN3COCC23)cc1 (centres unmarked) [D3.095] | – | 42.4 |
| O=C1CCCC(=O)N1c1ccc(N2CCc3ccccc3C2)c([N+](=O)[O-])c1 [D3.104] | – | 28.8 |
| C=CCOC(=O)C1=CS(=O)(=O)c2ccccc21 [D3.105] | 252 | – |
| CSc1nc2sc3c(c2c2nnc(SCc4cccc(OC(C)C)c4)n12)CC(C)(C)OC3 [D3.108] | 269 | – |
| O=C(N/N=C/c1cc(Br)ccc1OC(=O)c1ccc([N+](=O)[O-])cc1)/C(=C\c1ccc2c(c1)OCO2)NC(=O)c1ccccc1 [D3.109] | 272 | – |
| COc1ccc(-n2c(=O)c3c4c(sc3n3c(SCc5ccc(Br)cc5)nnc23)COC(C)(C)C4)cc1 [D3.113] | 317 | – |
| Nc1nc2ccc(S(=O)(=O)c3ccc4nc(N)sc4c3)cc2s1 [D3.118] | 417 | – |
| COc1ccc(N2C(=O)CSCC2=O)cc1OC [D4.004] | 3.1 | – |
| COc1cc(OC)cc(N2C(=O)CSCC2=O)c1 [D4.005] | 3.8 | – |
| CCC(=O)Oc1cccc(N2C(=O)C3C4C=CC(C3C2=O)C2C(=O)N(c3cccc(OC(=O)CC)c3)C(=O)C42)c1 (centres unmarked) [D4.006] | 4.2 | – |

The next lines start with the values.

| IC50 [1] [µM] | IC50 [2] [µM] | SMILES |
| --- | --- | --- |
| 1.4 | – | O=C(Nc1ccccc1CC(=O)N1CCCNCC1)c1cccnc1Sc1ccccc1 [D1.002] |
| – | 33.4 | O=C1/C(=N\NC(=S)Nc2ccccc2F)c2cc(S(=O)(=O)N3CCOCC3)ccc2N1Cc1ccc(Cl)cc1 [D2.004] |
| 148 | – | CCOC(=O)n1ccc(C(=O)Nc2ccccn2)n1 [D2.007] |
| 275 | – | Cc1ccccc1NC(=O)C(=O)N/N=C/c1cccc(Cl)c1 [D2.008] |
| – | 10.1 | Nc1nonc1-n1nnc(C(=O)NN=C2c3ccccc3-c3ccccc32)c1-c1ccccc1 [D3.011] |
| – | 14.4 | O=C(Nc1ccc(O)c(-c2nc3ccccc3s2)c1)c1ccc([N+](=O)[O-])o1 [D3.018] |
| – | 15.2 | CCCC(=O)O/N=C1\C(=O)N(c2ccccc2)c2ccccc21 [D3.021] |
| – | 23.8 | CCC(=O)Oc1ccc(C(=O)Nc2ccc(OCC(=O)O)cc2)cc1 [D3.025] |
| – | 33 | N#Cc1c(NC(=O)c2ccccc2)sc2c1CCCCC2 [D3.042] |
| – | 38.2 | O=C(Nc1c[nH]c(=O)[nH]c1=O)c1ccc2c(c1)C(=O)N(c1ccc(C(=O)c3ccccc3)cc1)C2=O [D3.048] |
| – | 39.8 | O=C1c2ccccc2C(=O)N1c1cccc(-c2csc(N3N=C(c4cccc([N+](=O)[O-])c4)CC3c3ccc(F)cc3)n2)c1 (centres unmarked) [D3.050] |
| – | 42.4 | O=C(/C=C/c1ccco1)Nc1ccc2oc(-c3cccc(Cl)c3Cl)nc2c1 [D3.055] |
| – | 43.1 | O=C1NC23NC(=O)NC2(N1)c1ccccc1-c1ccccc13 (centres unmarked) [D3.057] |
| – | 46.4 | CC(C)c1ccc2c(c1)[C@@H]1C=CC[C@@H]1[C@H](c1ccc(C(=O)O)cc1)N2 [D3.062] |
| – | 48.3 | Cn1c(=O)n(Cc2ccccc2)c(=O)c2c1nc(N1CCNCC1)n2Cc1ccccc1 [D3.064] |
| – | 52.4 | CC(C)C1Cc2c(sc3nc(SCC(=O)c4ccccc4)n(Cc4ccccc4)c(=O)c23)CO1 (centres unmarked) [D3.067] |

| IC50 [1] [µM] | IC50 [2] [µM] | SMILES |
| --- | --- | --- |
| – | 54.1 | CCOC(=O)c1c(N2C(=O)C3ON(c4ccccc4)C(c4ccc([N+](=O)[O-])cc4)C3C2=O)sc2c1CCCC2 (centres unmarked) [D3.069] |
| – | 55.4 | COc1cc(C)ccc1N(CCCN1C(=O)c2cccc3cccc(c23)C1=O)C(=O)c1cc(C)cc(C)c1 [D3.073] |
| 112 | – | CC1=C(C(=O)Nc2ccccc2)C(c2ccccc2Cl)c2c(sc(C(=O)c3ccc(Cl)cc3)c2N)N1 (centres unmarked) [D3.093] |
| – | 138 | Cc1cc(-c2ccc(/C=C(\C#N)c3nc4ccccc4[nH]3)o2)ccc1[N+](=O)[O-] [D3.096] |
| 169 | – | Cc1ccc(C(=O)NC(NC(=S)Nc2sc3c(c2C(N)=O)CCCC3)C(Cl)(Cl)Cl)cc1 (centres unmarked) [D3.099] |
| – | 56.3 | CCOc1ccc(/C=N/NC(=O)c2cc(-c3c(OC)ccc4ccccc34)n[nH]2)cc1 [D3.100] |
| 209 | – | Cc1ccc(-n2c(SCC(=O)c3ccccc3)nc3sc4c(c3c2=O)CC(C(C)C)OC4)cc1 (centres unmarked) [D3.102] |
| 224 | – | COc1ccc2nc(NC(=O)COC(=O)CN3C(=O)c4ccccc4C3=O)sc2c1 [D3.103] |
| 268 | – | CC(=O)Oc1ccc(-n2c(=O)c3ccccc3c3ccccc3c2=O)cc1 [D3.107] |
| 279 | – | Cc1ccccc1NC(=O)c1cc2c3c(c1)C1C=CCC1CN3CC1CC=CC21 (centres unmarked) [D3.110] |
| 284 | – | COc1ccc(NC(=O)CSc2nnc3n2-c2sc4c(c2C(=O)C3CCc2ccccc2)CC(C)(C)OC4)cc1 (centres unmarked) [D3.111] |
| 332 | – | O=C1c2sc3nnc(-c4ccccc4)c(=O)n3c2C(=O)N1c1ccccc1 [D3.114] |
| 363 | – | CCOC(=O)c1c(NC(=O)CSc2nc(=O)cc(N)n2-c2cccc(C)c2)sc2c1CCC2 [D3.116] |
| 402 | – | Nc1ccc(C(=O)NNC(=O)c2ccc(N3C(=O)c4ccc(C(=O)NNC(=O)c5ccc([N+](=O)[O-])cc5)cc4C3=O)cc2)cc1 [D3.117] |
| 527 | – | Cc1ccc(N2C(=O)C3CC(c4ccccc4)=C4C5C=CC(C6C(=O)N(c7ccc(C)cc7C)C(=O)C56)C4C3C2=O)c(C)c1 (centres unmarked) [D3.119] |
